Laboratory results reported in patent publication US20080275018A1, “ANTIBACTERIAL AMIDE-MACROCYCLES V” (AiCuris GmbH & Co. KG, priority 2005, published 2008).
Converted amounts (≈) assume the structure as drawn. Counter-ions that a name gives are not always drawn. Like-named read-outs stand apart in the source and are kept apart here.

Assays:
[1] = tested on: S. aureus 133; test: Minimum inhibitory concentration (MIC), S. aureus 133; type: cell-based, Staphylococcus aureus
Procedure: (§1) The minimum inhibitory concentration (MIC) is the minimum concentration of an antibiotic with which the growth of a test microbe is inhibited over 18-24 h. The inhibitor concentration can in these cases be determined by standard microbiological methods (see, for example, The National Committee for Clinical Laboratory Standards. Methods for dilution antimicrobial susceptibility tests for bacteria that grow aerobically; approved standard-fifth edition. NCCLS document M7-A5 [ISBN 1-56238-394-9]. NCCLS, 940 West Valley Road, Suite 1400, Wayne, Pa. 19087-1898 USA, 2000). The test substances are thereby initially provided in 1:2 dilution series into 96-well round-bottom microtiter plates (Greiner) double-concentrated in 50 μl of test medium. The aerobically growing test microbes (e.g. staphylococci and enterococci), which are incubated overnight on Columbia blood agar plates (Becton-Dickinson), are, after resuspension in 0.9% NaCl, adjusted to a microbe count of about 5×10^7 microbes/ml and then diluted 1:150 in cation-adjusted MH medium (test medium). 50 μL of this suspension are pipetted onto the test preparations provided in the microtiter plates. The cultures are incubated at 37° C. for 18-24 hours. For microaerophilically growing microbes (e.g. streptococci), 2% lysed horse blood in the final concentration is added to the medium and the cultures are incubated in the presence of 5% CO2. The lowest substance concentration in each case at which no visible bacterial growth occurs any longer is defined as the MIC and is reported in μg/ml.
(§2) The minimum inhibitory concentration (MIC) is the minimum concentration of an antibiotic with which the growth of a test microbe is inhibited over 18-24 h. The inhibitor concentration can in these cases be determined by standard microbiological methods (see, for example, The National Committee for Clinical Laboratory Standards. Methods for dilution antimicrobial susceptibility tests for bacteria that grow aerobically; approved standard-fifth edition. NCCLS document M7-A5 [ISBN 1-56238-394-9]. NCCLS, 940 West Valley Road, Suite 1400, Wayne, Pa. 19087-1898 USA, 2000). The MIC of the compounds of the invention is determined in the liquid dilution test on the 96-well microtiter plate scale. The bacterial microbes are cultivated in a minimal medium (18.5 mM Na2HPO4, 5.7 mM KH2PO4, 9.3 mM NH4Cl, 2.8 mM MgSO4, 17.1 mM NaCl, 0.033 μg/ml thiamine hydrochloride, 1.2 μg/ml nicotinic acid, 0.003 μg/ml biotin, 1% glucose, 25 μg/ml of each proteinogenic amino acid with the exception of phenylalanine; [H.-P. Kroll; unpublished]) with the addition of 0.4% BH broth (test medium). In the case of Enterococcus faecium L4001, heat-inactivated fetal calf serum (FCS; GibcoBRL, Germany) is added to the test medium in a final concentration of 10%. Overnight cultures of the test microbes are diluted to an OD578 of 0.001 (to 0.01 in the case of enterococci) in fresh test medium, and incubated 1:1 with dilutions of the test substances (1:2 dilution steps) in test medium ([…]). The cultures are incubated at 37° C. for 18-24 hours; enterococci in the presence of 5% CO2.
(§3) The lowest substance concentration in each case at which no visible bacterial growth occurs any longer is defined as the MIC.
(§4) The minimum inhibitory concentration (MIC) is the minimum concentration of an antibiotic with which the growth of a test microbe is inhibited over 18-24 h. The inhibitor concentration can in these cases be determined by standard microbiological methods with modified medium in an agar dilution test (see, for example, The National Committee for Clinical Laboratory Standards. Methods for dilution antimicrobial susceptibility tests for bacteria that grow aerobically; approved standard-fifth edition. NCCLS document M7-A5 [ISBN 1-56238-394-9]. NCCLS, 940 West Valley Road, Suite 1400, Wayne, Pa. 19087-1898 USA, 2000). The bacterial microbes are cultivated on 1.5% agar plates which contain 20% defibrinated horse blood. […]

[2] = tested on: E. faecium L4001; test: Minimum inhibitory concentration (MIC), E. faecium L4001; type: cell-based, Enterococcus faecium; conditions: Enterococcus faecium
Procedure: as §2, §3

[3] = tested on: S. aureus T17; test: Minimum inhibitory concentration (MIC), biphenomycin-resistant S. aureus T17; type: cell-based, Staphylococcus aureus; conditions: Staphylococcus aureus; biphenomycin-resistant S. aureus T17
Procedure: as §1, §2, §3, §4

[4] = biological target: S. aureus 133 Translation; test: S. aureus in vitro transcription-translation assay (firefly luciferase, S30 extract); type: biochemical; conditions: 50% inhibition of the translation of firefly luciferase
Description: For the construction of a reporter plasmid which can be used in an in vitro transcription-translation assay from S. aureus the plasmid pBESTluc (Promega Corporation, USA) is used. The E. coli tac promoter present in this plasmid in front of the firefly luciferase is replaced by the capA1 promoter with corresponding Shine-Dalgarno sequence from S. aureus. The primers CAPFor 5′-[…]-[…] GCCA-3′ and CAPRev 5′-[…]-3′ are used for this. The primer CAPFor contains the capA1 promoter, the ribosome binding site and the 5′ region of the luciferase gene. After PCR using pBESTluc as template it is possible to isolate a PCR product which contains the firefly luciferase gene with the fused capA1 promoter. This is, after restriction with ClaI and HindIII, ligated into the vector pBESTluc which has likewise been digested with ClaI and HindIII. The resulting plasmid pla can be replicated in E. coli and be used as template in the S. aureus in vitro transcription-translation test.
Six litres of BHI medium are inoculated with a 250 ml overnight culture of an S. aureus Strain and allowed to grow at 37° C. until the OD600 nm is 2-4. The cells are harvested by centrifugation and washed in 500 ml of cold buffer A (10 mM Tris acetate, pH 8.0, 14 mM magnesium acetate, 1 mM DTT, 1 M KCl). After renewed centrifugation, the cells are washed in 250 ml of cold buffer A with 50 mM KCl, and the resulting pellets are frozen at −20° C. for 60 min. The pellets are thawed on ice in 30 to 60 min and taken up to a total volume of 99 ml in buffer B (10 mM Tris acetate, pH 8.0, 20 mM magnesium acetate, 1 mM DTT, 50 mM KCl). 1.5 ml portions of lysostaphin (0.8 mg/ml) in buffer B are provided in 3 precooled centrifuge cups and each mixed with 33 ml of the cell suspension. The samples are incubated at 37° C., shaking occasionally, for 45 to 60 min, before 150 μl of a 0.5 M DTT solution are added. The lysed cells are centrifuged at 30 000×g and 4° C. for 30 min. The cell pellet is taken up in buffer B and then centrifuged again under the same conditions, and the collected supernatants are combined. The supernatants are centrifuged again under the same conditions, and 0.25 volumes of buffer C (670 mM Tris acetate, pH 8.0, 20 mM magnesium acetate, 7 mM Na3 phosphoenolpyruvate, 7 mM DTT, 5.5 mM ATP, 70 μM amino acids (complete from Promega), 75 μg of pyruvate kinase (Sigma, Germany)/ml are added to the upper ⅔ of the supernatant. The samples are incubated at 37° C. for 30 min. The supernatants are dialysed against 2 l of dialysis buffer (10 mM Tris acetate, pH 8.0, 14 mM magnesium acetate, 1 mM DTT, 60 mM potassium acetate) in a dialysis tube with a 3500 Da cut-off with one buffer change at 4° C. overnight. The dialysate is concentrated to a protein concentration of about 10 mg/ml by
covering the dialysis tube with cold PEG 8000 powder (Sigma, Germany) at 4° C. The S30 extracts can be stored in aliquots at −70° C.
The inhibition of protein biosynthesis of the compounds can be shown in an in vitro transcription-translation assay. The assay is based on the cell-free transcription and translation of firefly luciferase using the reporter plasmid pla as template and cell-free S30 extracts obtained from S. aureus. The activity of the resulting luciferase can be detected by luminescence measurement.
The amount of S30 extract or plasmid pla to be employed must be tested anew for each preparation in order to ensure an optimal concentration in the test. […] of the substance to be tested, dissolved in 5% DMSO, are introduced into an MTP. Then […] of a suitably concentrated plasmid solution pla are added. […]

[5] = Staphylococcus aureus, 133; read-out: MIC S. aureus 133
[6] = E. faecium L4001, 10% FCS in test medium, read-out: MIC E. faecium L4001
[7] = Staphylococcus aureus, 133, read-out: MIC S. aureus 133
[8] = L4001, read-out: MIC E. faecium L4001

SMILES	MIC [1, 5]	MIC [2, 6]	MIC [3]	IC50 [4]	MIC [1, 7]	MIC [2, 8]
NCCC[C@H](NC(=O)[C@@H]1Cc2cccc(c2)-c2ccc(O)c(c2)C[C@H](N)C(=O)N[C@@H](C[C@@H](O)CN)C(=O)N1)C(=O)NCCN [Example 1, (8S,11S,14S)-14-Amino-N-((1S)-4-amino-1-{[(2-aminoethyl)amino]carbonyl)}butyl)-11-[(2R)-3-amino-2-hydroxypropyl]-17-hydroxy-10,13-dioxo-9,12-diazatricyclo[14.3.1.1^2,6]-henicosa-1 (20),2(21),3,5,16,18-hexaene-8-carboxamide tetrahydrochloride]	0.5 µg/mL	4 µg/mL	1 µg/mL	70 nM		
NCCC[C@H](N)CNC(=O)[C@H](CCCN)NC(=O)[C@@H]1Cc2cccc(c2)-c2ccc(O)c(c2)C[C@H](N)C(=O)N[C@@H](CCCN)C(=O)N1 [Example 3, (8S,11S,14S)-14-Amino-N-[(s)-4-amino-1-({[(25)-2,5-diaminopentyl]amino}carbonyl)butyl]-11-(3-aminopropyl)-17-hydroxy-10,13-dioxo-9,12-diazatricyclo[14.3.1.1^2,6]henicosa-1(20),2(21),3,5,16,18-hexaene-8-carboxamide pentahydrochloride]	2 µg/mL	16 µg/mL	2 µg/mL	200 nM		
NCCNC(=O)[C@@H](N)CCCNC(=O)[C@@H]1Cc2cccc(c2)-c2ccc(O)c(c2)C[C@H](N)C(=O)N[C@@H](C[C@@H](O)CN)C(=O)N1 [Example 5, (8S,11S,14S)-14-Amino-N-{(4S)-4-amino-5-[(2-aminoethyl)amino]-5-oxopentyl}-11-[(2R)-3-amino-2-hydroxypropyl]-17-hydroxy-10,13-dioxo-9,12-diazatricyclo[14.3.1.1^2,6]-henicosa-1(20),2(21),3,5,16,18-hexaene-8-carboxamide tetrahydrochloride]			1 µg/mL	200 nM	1 µg/mL	2 µg/mL
NCCC[C@H](NC(=O)[C@@H]1Cc2cccc(c2)-c2ccc(O)c(c2)C[C@H](N)C(=O)N[C@@H](CCCN)C(=O)N1)C(=O)NCCC[C@H](N)CC(=O)NCCN [Example 12, (8S,11S,14S)-14-Amino-N-{(1S)-4-amino-1-[({(4S)-4-amino-6-[(2-aminoethyl)amino]-6-oxohexyl}amino)carbonyl]butyl}-11-(3-aminopropyl)-17-hydroxy-10,13-dioxo-9,12-diazatricyclo[14.3.1.1^2,6]henicosa-1(20),2(21),3,5,16,18-hexaene-8-carboxamide pentahydrochloride]			1 µg/mL		1 µg/mL	16 µg/mL
NCCC[C@H](N)CNC(=O)C[C@@H](N)CCCNC(=O)[C@H](CCCN)NC(=O)[C@@H]1Cc2cccc(c2)-c2ccc(O)c(c2)C[C@H](N)C(=O)N[C@@H](CCCN)C(=O)N1 [Example 15, (8S,11S,14S)-14-Amino-N-((1S)-4-amino-1-{[((4S)-4-amino-6-{[(2S)-2,5-diaminopentyl]-amino}-6-oxohexyl)amino]carbonyl}butyl)-11-(3-aminopropyl)-17-hydroxy-10,13-dioxo-9,12-diazatricyclo[14.3.1.1^2,6]henicosa-1 (20),2(21),3,5,16,18-hexaene-8-carboxamide hexahydrochloride]			2 µg/mL	100 nM	1 µg/mL	> 32 µg/mL
NCCC[C@H](N)CNC(=O)C[C@H](CCCN)NC(=O)[C@@H]1Cc2cccc(c2)-c2ccc(O)c(c2)C[C@H](N)C(=O)N[C@@H](CCCN)C(=O)N1 [Example 19, (8S,11S,14S)-14-Amino-N-[(1S)-4-amino-1-(2-{[(2S)-2,5-diaminopentyl]amino}-2-oxoethyl)butyl]-11-(3-aminopropyl)-17-hydroxy-10,13-dioxo-9,12-diazatricyclo[14.3.1.1^2,6]henicosa-1 (20),2(21),3,5,16,18-hexaene-8-carboxamide penta(hydrotrifluoroacetate)]	1 µg/mL (≈ 1.5 µM)	16 µg/mL (≈ 24 µM)	1 µg/mL (≈ 1.5 µM)	100 nM		
CN1C(=O)[C@H](C[C@@H](O)CN)NC(=O)[C@@H](N)Cc2cc(ccc2O)-c2cccc(c2)C[C@H]1C(=O)NCCC(=O)NC[C@@H](N)CCCN [Example 68]	1 µg/mL (≈ 1.56 µM)	8 µg/mL (≈ 12.5 µM)	1 µg/mL (≈ 1.56 µM)	200 nM		
